Values of other authors in PMC8748714, “Dynamics of GLP-1R peptide agonist engagement are correlated with kinetics of G protein activation” (Nature Communications, 2022).

Legend:
[1] = tested on: GLP-1R
From the text: Despite this conservation, these peptides induce distinct signalling profiles and have different mechanisms for receptor interaction. […] While there was also conservation in the TM bundle interactions when engaged by the four peptides, differences were identified in how each peptide uses different networks to facilitate G protein coupling. This transmission of information across the TM bundle also enables G ...

[2] = tested on: GLP-1R; details: vs full-length exendin-4

Substance: exendin(9–39): N-terminally truncated exendin-4 lacking the first 8 amino acids
- lower affinity than corresponding full-length peptide ([1]; exendin(9–39) vs exendin-4, GLP-1(15–36) vs GLP-1): 10–30 fold

Substance: GLP-1 (Ala2Gly): GLP-1 with Ala2Gly substitution
- effect of residue 2 substitution on affinity ([1]; ref 31-33 (chimera ref 32)): reduced affinity

Substance: truncation of the first two residues of exendin-4: exendin-4 truncated by the first two residues
- affinity on truncation of first two residues ([1]; vs full-length exendin-4): does not significantly alter its affinity
- decrease in potency for cAMP signalling on truncation of first two residues [2]: ~ 200 fold
